Laboratory results taken from patent US20250353873A1, “COMPOUNDS AND METHODS FOR MODULATING APOE EXPRESSION” (Ionis Pharmaceuticals, Inc., priority 2024, published 2025).
Strand notation (5' to 3'): a small letter for the sugar, then the base; units joined by * are phosphorothioate-linked, units joined directly phosphodiester-linked; [ ] holds rarer units or linkages, { } end groups; capitals alone tell only the bases. [ms] = mesyl phosphoramidate linkage; e = 2'-O-(2-methoxyethyl) (MOE); k = constrained ethyl (cEt); [5mC] = 5-methylcytosine; d = 2'-deoxy (DNA)

Experiments:
[1] = tested on: human APOE RNA; assay: Dose-dependent inhibition of human APOE RNA in differentiated SH-SY5Y cells, free uptake, 5 days (Example 5); type: cell-based; conditions: 5 days (Table 14)
Method in brief: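 APOE RNA, measured by RTS3073 primer probe set and normalized to human PPIA, is reported as % of untreated control cells, with IC50 fitted. Cells were differentiated SH-SY5Y at 10,000/well, given modified oligonucleotide at several concentrations by free uptake for 5 days.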

[2] = tested on: human APOE RNA; assay: Activity in APOE C57BL/6NTac-Apoeem7250 knock-in mice, single ICV bolus, 8 weeks (Example 11); type: in vivo; conditions: single ICV bolus 300 μg, 8 weeks post treatment, normalized to mouse Ppia
Method in brief: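 Cortical and spinal cord human APOE RNA quantified by RT-qPCR 8 weeks after a single 300 μg ICV dose in knock-in mice, Ppia-normalized. Values are percent of levels in PBS-treated animals.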

[3] = tested on: human APOE RNA; assay: Potency (dose response, ED50) in APOE C57BL/6NTac-Apoeem7250 knock-in mice, 4 weeks (Example 14); type: in vivo
Description: Modified oligonucleotides described above were tested in the APOE C57BL/6NTac-Apoeem7250 knock-in mouse model described above.
APOE C57BL/6NTac-Apoeem7250 knock-in mice were divided into groups of 3-4 mice each. A group of 3-4 mice received a single ICV bolus with PBS as a negative control.
Four weeks post treatment, mice were sacrificed, and RNA was extracted from cortical brain tissue and spinal cord for quantitative real-time RT-PCR analysis of RNA expression of […] using human primer probe set RTS3073 (described herein above). APOE RNA levels were normalized to mouse Ppia. Mouse Ppia was amplified using primer probe set m_cyclo24 (described herein above). Results are presented as percent human APOE RNA relative to the amount of APOE RNA in PBS treated animals, (% control). N.C. indicates values that were not calculated. Each experiment is identified in separate tables below.
The half maximal effective dose (ED50) of each modified oligonucleotide was calculated using GraphPad Prism 10 software (GraphPad Software, San Diego, CA).

[4] = tested on: human APOE RNA; assay: Dose-dependent reduction of human APOE RNA in HepG2 cells, electroporation, 20,000 cells per well, average of GAPDH- and PPIA-normalized results (Example 4, Table 12); type: cell-based; conditions: HepG2, 20,000 cells per well
Description: HepG2 cells plated at a density of 20,000 cells per well were treated by electroporation with various concentrations of modified oligonucleotide as specified in the tables below. […] APOE RNA levels were measured using the human primer probe set RTS3073 (described herein above). APOE RNA levels were normalized to human GAPDH, and human PPIA. Human GAPDH was amplified using human primer probe set RTS104 (described herein above). Human PPIA was amplified using human primer probe set mk_cycloA_2nd (described herein above) The average of the GAPDH-normalized results and the PPIA-normalized results are presented in the table below as percent APOE RNA, relative to the amount of APOE RNA in untreated control cells (% UTC). The half maximal inhibitory concentration (IC50) of each modified oligonucleotide was calculated in GraphPad Prism 10 (GraphPad Software, San Diego, CA) and is also presented in the table below.

[5] = tested on: human APOE RNA; assay: Activity in APOE C57BL/6NTac-Apoeem7250 knock-in mice, single ICV bolus, 4 weeks (Example 10); type: in vivo; conditions: single ICV bolus 300 μg, 4 weeks post treatment, normalized to mouse Ppia
Method in brief: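 Human APOE RNA, quantified by real-time RT-PCR with RTS3073 and normalized to mouse Ppia, was read in cortical brain and spinal cord 4 weeks post dosing. Dosing was a single ICV bolus of 300 μg per knock-in mouse; values are % of PBS-treated animals.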

**Q.** How did the “APOE RNA (% UTC)” value ([1]; 5 nM) turn out when “1757575 (eA*e[5mC]eTeT*kG*kG*dT*dG[ms]dA[ms]dA[ms]dT*d[5mC]*dT*dT*dT*dA[ms]kT*eT*eA*eA; antisense) [Compound 1757575]” was run?
**A.** 44 % UTC

**Q.** And the “APOE RNA (% UTC)” value ([1]; 13 nM)?
**A.** 56 % UTC

**Q.** What about the “APOE RNA (% UTC)” value ([1]; 33 nM) of the same substance?
**A.** 39 % UTC

**Q.** And the “APOE RNA (% UTC)” value ([1]; 82 nM)?
**A.** 50 % UTC

**Q.** And the “APOE RNA (% UTC)” value ([1]; 205 nM)?
**A.** 34 % UTC

**Q.** What about the “APOE RNA (% UTC)” value ([1]; 512 nM) of the same substance?
**A.** 30 % UTC

**Q.** And the “APOE RNA (% UTC)” value ([1]; 1,280 nM)?
**A.** 26 % UTC

**Q.** What about the “APOE RNA (% UTC)” value ([1]; 3,200 nM) of the same substance?
**A.** 23 % UTC

**Q.** And the “APOE RNA (% UTC)” value ([1]; 8,000 nM)?
**A.** 12 % UTC

**Q.** And the “APOE RNA (% UTC)” value ([1]; 20,000 nM)?
**A.** 11 % UTC

**Q.** What about the IC50 [1] of the same substance?
**A.** 10 nM

**Q.** And the “APOE RNA (% control) Cortex” value ([2]; cortex)?
**A.** 35 % control

**Q.** And the “APOE RNA (% control) Spinal Cord” value ([2]; spinal cord)?
**A.** 32 % control

**Q.** And the “APOE RNA (% control) Cortex” value ([3]; cortex, ICV dose 10 μg)?
**A.** 100 % control

**Q.** And the “APOE RNA (% control) Cortex” value ([3]; cortex, ICV dose 30 μg)?
**A.** 82 % control

**Q.** What about the “APOE RNA (% control) Cortex” value ([3]; cortex, ICV dose 100 μg) of the same substance?
**A.** 88 % control

**Q.** And the “APOE RNA (% control) Cortex” value ([3]; cortex, ICV dose 300 μg)?
**A.** 51 % control

**Q.** What about the “APOE RNA (% control) Cortex” value ([3]; cortex, ICV dose 700 μg) of the same substance?
**A.** 30 % control

**Q.** What about the “ED 50 (μg) Cortex” value ([3]; cortex, single ICV bolus, GraphPad Prism 10) of the same substance?
**A.** 337.5 µg

**Q.** And the “APOE RNA (% control) Spinal Cord” value ([3]; spinal cord, ICV dose 10 μg)?
**A.** 82 % control

**Q.** What about the “APOE RNA (% control) Spinal Cord” value ([3]; spinal cord, ICV dose 30 μg) of the same substance?
**A.** 48 % control

**Q.** And the “APOE RNA (% control) Spinal Cord” value ([3]; spinal cord, ICV dose 100 μg)?
**A.** 40 % control

**Q.** And the “APOE RNA (% control) Spinal Cord” value ([3]; spinal cord, ICV dose 300 μg)?
**A.** 28 % control

**Q.** What about the “APOE RNA (% control) Spinal Cord” value ([3]; spinal cord, ICV dose 700 μg) of the same substance?
**A.** 51 % control

**Q.** And the “ED 50 (μg) Spinal Cord” value ([3]; spinal cord, single ICV bolus, GraphPad Prism 10)?
**A.** 84.6 µg

**Q.** And the “APOE RNA (% UTC)” value ([4]; 5 nM)?
**A.** 92 % UTC

**Q.** What about the “APOE RNA (% UTC)” value ([4]; 13 nM) of the same substance?
**A.** 96 % UTC

**Q.** And the “APOE RNA (% UTC)” value ([4]; 33 nM)?
**A.** 93 % UTC

**Q.** And the “APOE RNA (% UTC)” value ([4]; 82 nM)?
**A.** 81 % UTC

**Q.** What about the “APOE RNA (% UTC)” value ([4]; 205 nM) of the same substance?
**A.** 72 % UTC

**Q.** What about the “APOE RNA (% UTC)” value ([4]; 512 nM) of the same substance?
**A.** 47 % UTC

**Q.** And the “APOE RNA (% UTC)” value ([4]; 1,280 nM)?
**A.** 34 % UTC

**Q.** What about the “APOE RNA (% UTC)” value ([4]; 3,200 nM) of the same substance?
**A.** 27 % UTC

**Q.** What about the “APOE RNA (% UTC)” value ([4]; 8,000 nM) of the same substance?
**A.** 10 % UTC

**Q.** And the “APOE RNA (% UTC)” value ([4]; 20,000 nM)?
**A.** 5 % UTC

**Q.** What about the IC50 ([4]; approximately 24 hours) of the same substance?
**A.** 570 nM

**Q.** What about the “APOE RNA (% control) Cortex” value ([5]; cortex) of the same substance?
**A.** 38 % control

**Q.** What about the “APOE RNA (% control) Spinal Cord” value ([5]; spinal cord) of the same substance?
**A.** 27 % control
